Experimental data taken from patent US11992497B2 (priority 2021, dated 2024).
Where two headings read alike, the source gives them in different places.

Tests used:
[1] = test system: p-cMyc(S62), cMyc, p-AKT(S473), AKT, p-ERK(T202/Y204), ERK; experiment: Target engagement Western blot in HCT116 cells; type: cell-based; settings: 10-80 μM, 3 hours
Procedure: For Western blot, the compounds were tested at 4 concentrations for 3 hours on 3 colon cancer cell lines. The compounds, concentrations, colon cancer cell line panel, and antibodies panel tested are the following: • CBG: 0 μM, 10 μM, 20 μM, 40 μM, and 80 μM. • Compound 1: 0 μM, 10 μM, 20 μM, 40 μM, and 80 μM. • Compound 2: 0 μM, 10 μM, 20 μM, 40 μM, and 80 μM. • Colon cancer cell line panel: SW620, HCT15, HCT116 • Antibodies panel: p-cMYC(S62), cMyc, p-AKT(S473), AKT, p-ERK(T202/Y204), ERK Methods
Evaluation of target engagement was performed to determine the expression of specific marker protein expression and underlying signaling pathways with Western blot.
Western blot. Whole cell extracts were prepared by incubating cell pellets in IP lysis buffer supplemented with protease and phosphatase inhibitors (Roche). Isolated protein was quantified by Pierce BCA Protein assay (ThermoFisher). Equal quantities of protein were separated by 4-15% SDS-PAGE electrophoresis gels and transferred onto nitrocellulose membranes. Membranes was blocked with 5% nonfat milk in Tris-buffered saline-Tween buffer. […]

[2] = Quantification of CBG in rat brain tissue (LC-MS/MS); type: in vivo, Sprague-Dawley rat; settings: for concentration at 24 h: Sprague-Dawley, rat, brain, oral
Procedure: The purpose of this study was to quantify cannabigerol (CBG) in rat plasma and brain.
Seven- to nine-week-old male and female Sprague-Dawley received either a single dose or once daily dosing for 21 days of vehicle or CBG at three different dosage levels as shown in the Table below.
Approximately 0.2-0.25 mL blood was collected during the first 24 hours after the single dose, and at multiple times points after the terminal dose for the animals receiving daily dosing for 21 days. Liver, kidney, and colon samples were collected and fixed in 10% NBF for 48 hours, then stored in 70% ethanol at room temperature. Brain samples were collected and flash frozen.
Analytical curves were constructed using non-zero standards with CBG concentration ranging from 0.0025 to 2.500 μg/mL and 2.500-100.0 μg/mL in blank rat plasma samples and 1.0 to 2500 ng/mL in blank brain tissues. A blank sample was used to exclude contamination.
Instrument Used: AB SCIEX QTRAP 4500/Shimadzu Prominence LC

[3] = Metabolic stability in human intestine microsomes (UDPGA, UGT activity only); type: in vitro ADME; settings: human, pooled intestinal microsomes, pH 7.4, 1 μM, 0.5 mg/mL microsomes + alamethicin, UDPGA
Procedure: (§1) The objective of this study was to investigate the stability of the test compound, CBG, in the presence of intestinal microsomes that only have UGT activity and no CYP activity.
(§2) Test compound (1 μM) was incubated with pooled intestinal microsomes at 6 time points over the course of a 60 min assay and the test compound is analyzed by LC-MS/MS.
(§3) The final incubation volume is 500 μL. A minus cofactor control incubation was included for each compound tested where 0.1 M Tris, 5 mM MgCl2 buffer pH 7.4 is added instead of UDPGA (minus UDPGA). Two control compounds were included. All incubations were performed singularly for each test compound.
(§4) Each compound was incubated for 0, 5, 10, 20, 40 and 60 min. The control (minus UDPGA) was incubated for 60 min only. The reactions were stopped by transferring incubate into acetonitrile at the appropriate time points, in a 1:3 ratio. The termination plates were centrifuged at 3,000 rpm for 20 min at 4° C. to precipitate the protein.
(§5) Following protein precipitation, the sample supernatants were combined in cassettes of up to 4 compounds, internal standard was added and samples analysed using Cyprotex generic LC-MS/MS conditions.
(§6) From a plot of ln peak area ratio (compound peak area/internal standard peak area) against time, the gradient of the line was determined. Subsequently, half-life and intrinsic clearance were calculated using the equations below: […]

[4] = test system: human intestine microsomes; experiment: as above; type: in vitro ADME
Procedure: as §1, §2, §3, §4, §5, §6

[5] = Hepatocyte stability and metabolite profiling; type: in vitro ADME, minipig; settings: cryopreserved hepatocytes in suspension; Minipig cryopreserved hepatocytes
Procedure: (§7) The objective of this study was to investigate the stability of the test compound, CBG, in human, rat, dog, mouse, monkey and minipig cryopreserved hepatocytes. Follow-on metabolite profiling was performed.
(§8) CBG was incubated up to 2 hr with cryopreserved hepatocytes. Cryopreserved hepatocytes in suspension were added to test compound in supplemented media following pre-incubation to initiate the reaction and the reactions were stopped by organic solvent at the appropriate time points. The termination plates were centrifuged and sample supernatants were analysed using Cyprotex generic LC MS/MS conditions to generate intrinsic clearance values for CBG. Two control compounds for each species were included in the assay and if the values for these compounds were not within the specified limits the results were rejected and the experiment repeated.
(§9) Following the hepatocyte stability assay the samples were 59tilized for metabolite profiling using suitable high-resolution LC-MS/MS conditions. The 40 and 60 minute human samples, 20 and 120 minute rat samples, 10 and 20 minute dog and monkey samples, 20 and 60 minute mouse samples, and 40 and 120 minute minipig samples were compared against the 0 minute control sample to establish which and how many metabolites were formed. […] No further analysis was carried out with the mouse species.
(§10) The areas and percentages reported for the parent and metabolites were calculated using the XIC data. Metabolite observed at greater than 1% of the total of drug related material are reported. […] For accuracy, a ppm error of less than 5 is desirable; when the response for a metabolite observed is low the ppm error maybe greater than 5. Where a metabolite has been referred to as a potential oxidation it can refer to a potential hydroxylation, epoxidation or oxide formation. Representative collision induced dissociation (CID) mass spectra were obtained for the metabolites found.

[6] = test system: cryopreserved hepatocytes; experiment: Hepatocyte stability and metabolite profiling; type: in vitro ADME, minipig; settings: minipig hepatocyte samples
Procedure: as §7, §8, §9, §10

| Compound | pAKT(S473) (Western blot) [1] | CBG concentration in rat brain tissue (Day 21) ([2]; CBG 10 mg/kg oral gavage once daily, 24 hrs post Rx) | concentration at 24 h ([2]; both sexes, 30 mg/kg, CBG 30 mg/kg oral gavage once daily, 24 hrs post Rx, read-out: CBG concentration in rat brain tissue (Day 21)) [ng/g] | concentration at 24 h ([2]; female, 100 mg/kg, CBG 100 mg/kg once daily, 24 hrs post Rx, female rats, read-out: CBG concentration in rat brain tissue (Day 21), Average) [ng/g] | concentration at 24 h ([2]; male, 100 mg/kg, CBG 100 mg/kg once daily, 24 hrs post Rx, male rats, read-out: CBG concentration in rat brain tissue (Day 21), Average) [ng/g] | CBG in brain (in words) ([2]; oral CBG, Day 21) | half-life at 1 µM [3] [min] | microsomal CLint at 1 µM ([3]; from 0 and 5 minute time points only) [µL/min/mg] | appearance of CBG-glucoronide (in words) ([4]; CBG incubated with human intestine microsomes) | Comments: detectability of test compound ([4]; by 10 minutes) | disappearance of parent compound (in words) ([4]; incubated with human intestine microsomes) | half-life [5] [min] | hepatocyte CLint [5] [µL/min/1e6 cells] | number of metabolites observed [6] |
| --- | --- | --- | --- | --- | --- | --- | --- | --- | --- | --- | --- | --- | --- | --- |
| CCCCCc1cc(O)c(C/C=C(\C)CCC=C(C)C)c(OC)c1 [Compound 1, (E)-2-(3,7-dimethylocta-2,6-dien-1-yl)-3-methoxy-5-pentylphenol] | down-regulated pAKT(S473) in HCT116 cells with a dose effect |  |  |  |  |  |  |  |  |  |  |  |  |  |
| CCCCCc1cc(O)c(C/C=C(\C)CCC=C(C)C)c(O)c1 [CBG, cannabigerol] |  | BLQ (BLQ—Below Limit of Quantification (1.0 ng/g)) | 43.8 | 299 | 540 | not detected | 1.57 | 884 | appeared rapidly | Test compound not detectable | disappeared rapidly | 42.7 | 32.5 | four |
